Measured values from patent publication US10513511B2, “Aqueous suspension formulation comprising 4-(4-(4-(((3R,5R)-5-((1H-1,2,4-triazol-1-yl)methyl)-5-(2,4-difluoro-phenyl)tetrahydrofuran-3-yl)methoxy)-3-methylphenyl) or a pharmaceutically acceptable salt thereof” (PULMOCIDE LIMITED, priority 2015, dated 2019).
In brackets after ≈: the same amount, converted by molar mass.

Assays:
[1] = test system: Aspergillus fumigatus (ATCC 13073); experiment: In vivo anti-fungal activity, extended prophylactic dosing in infected immunocompromised neutropenic mice; design: species or system A/J mice; settings: for CFU in lung: mean ± SEM, N = 5
Protocol: (§1) Aspergillus fumigatus (ATCC 13073 [strain: NIH 5233], American Type Culture Collection, Manassas, Va., USA) was grown on Malt agar (Nissui Pharmaceutical, Tokyo, Japan) plates for 6-7 days at RT (24±1° C.). Spores were aseptically dislodged from the agar plates and suspended in sterile distilled water with 0.05% Tween 80 and 0.1% agar. On the day of infection, spore counts were assessed by haemocytometer and the inoculum was adjusted to obtain a concentration of 1.67×10^8 spores mL^−1 of physiological saline. […] On day 0, animals were infected with the spore suspension (30 μL intra-nasally).
Test substances were administered intra-nasally (35 μL of a suspension (0.0032-10.0 mg/mL of drug substance in physiological saline) once daily, on days 1, 2 and 3 only (thereby representing a therapeutic treatment regimen). […] One group was dosed 30 min before infection on day 0 but not subsequently, while a second group was further dosed on days 1, 2 and 3 after infection. The effects of these treatment paradigms were compared with those obtained when treatment was restricted in other groups to either one day or 30 min before inoculation and then on days 1, 2 and 3 post infection in both cases. In a final group, dosing was limited still further with animals dosed twice, one day and 30 min before infection only.
(§2) Animal body weights were monitored daily and at 6 hr after the last dose of drug was administered on day 3, the animals were anesthetised, the tracheas cannulated and BALF blood and lung tissue were collected. The levels of IL-6 and TNFα in serum were determined using Quantikine® mouse IL-6 or TNF-α ELISA kit (R&D systems, Inc., Minneapolis, Minn., USA) respectively. Aspergillus GM in serum was determination using Platelia GM-EIA kits (Bio-Rad Laboratories, Redmond, Wash., USA). Cut-off index (COI) was calculated by the formula: Cut-off index=OD in sample/OD in cut-off control provided in kit. For tissue fungal load assays, 100 mg of lung tissue was removed aseptically and homogenized in 0.2 mL of 0.1% agar in sterile distilled water. Serially diluted lung homogenates were plated on Malt agar plates (50 μL/plate), and incubated at 24±1° C. for 72 to 96 h. The colonies of A. fumigatus on each plate were counted and the fungal titre presented herein as CFUs per gram of lung tissue.

IL-6 = experiment: Serum IL-6 in Aspergillus fumigatus infected, immunocompromised, neutropenic mice; format: in vivo, A/J mice; settings: for IL-6 in serum, % Inhibition / Conc of Biomarkers, IL-6 in serum: therapeutic; for Conc of Biomarkers, IL-6 in serum: mean ± SEM, N = 6
Protocol: as §1
(§3) Test substances were administered intra-nasally (35 μL of a suspension (0.0032-10.0 mg/mL of drug substance in physiological saline) once daily, on days 1, 2 and 3 only (thereby representing a therapeutic treatment regimen). For extended prophylactic treatment, test compounds (35 μL of a suspension of 0.0032 or 0.016 mg/mL in physiological saline) were administered intra-nasally once daily for seven days. One group was dosed 30 min before infection on day 0 but not subsequently, while a second group was further dosed on days 1, 2 and 3 after infection. The effects of these treatment paradigms were compared with those obtained when treatment was restricted in other groups to either one day or 30 min before inoculation and then on days 1, 2 and 3 post infection in both cases. In a final group, dosing was limited still further with animals dosed twice, one day and 30 min before infection only.
as §2

[2] = test system: Aspergillus fumigatus (ATCC 13073); experiment: In vivo anti-fungal activity, therapeutic treatment of infected immunocompromised neutropenic mice; design: species or system A/J mice; settings: for CFU in lung, % Inhibition of response / DNA in Lung / DNA in Lung, % Inhibition of response / GM in Serum / GM in serum, % Inhibition of response / CFU in lung: therapeutic; for CFU in lung: mean ± SEM, n = 6
Protocol: as §1, §3, §2
For determination of Aspergillus fumigatus DNA content, DNA was extracted from either infected lungs or Aspergillus fumigatus with the Isoplant (Nippon Gene) according to the manufacture's instruction. The tissues cut to <3 mm in any length were mixed with solution I (extraction buffer: 300 μL). Solution II (lysis buffer; benzyl chloride: 150 μL) was then added to the mixtures followed by mixing with a vortex mixer for 5 seconds. After incubation at 50° C. for 15 min, solution III (sodium acetate, pH5.2: 150 μL) was added the mixtures agitated vigorously for 1-3 seconds and then incubated on ice for 15 min. After the incubation, the mixtures were centrifuged at 12,000 g for 15 min at 4° C. DNA in the upper aq phases of the supernatants was precipitated with 100% ethanol (×2.5 vol), washed with 70% ethanol and dissolved in 5-10 μL of TE buffer.
DNA amplification was performed with Premix Ex Taq™ (Takara Bio) in the 96-well optical reaction plate. Aspergillus fumigatus 18S rRNA gene fragments were amplified with the primer pair; 5′-GGCCCTTAA ATAGCCCGGT-3′ (SEQ ID No. 1) and 5′-[…]-3′ (SEQ ID No. 2), and hybridization probe; 5′-FAM-AGCCAGCGGCCCGCAAATG-TAMRA-3′ (SEQ ID No. 3). Real time PCR was performed in a (25 μL contained 50 ng of mouse DNA with 200 nM of probe) under the following conditions: initial incubation for 2 min at 50° C., initial denaturation for 10 min at 95° C., followed by 55 cycles of 15 seconds at 95° C. and 1 min at 65° C. […]

[3] = Days dosed −1 to + 3, 0.64 μg/mL
[4] = Days dosed −1 to + 3, 3.2 μg/mL
[5] = Days dosed −7 to + 3, 0.64 μg/mL
[6] = Days dosed −7 to + 3, 3.2 μg/mL
[7] = Therapeutic Regimen, intranasal

Cc1cc(N2CCN(c3ccc(C(=O)N[C@H]4CCCC[C@@H]4O)cc3)CC2)ccc1OC[C@@H]1CO[C@@](Cn2cncn2)(c2ccc(F)cc2F)C1 [Compound (Ia), 4-(4-(4-(((3R,5R)-5-((1H-1,2,4-triazol-1-yl)methyl)-5-(2,4-difluorophenyl)tetrahydrofuran-3-yl)methoxy)-3-methylphenyl)piperazin-1-yl)-N-((1S,2S)-2-hydroxycyclohexyl) benzamide]
CFU in lung, % Inhibition ([1]; Days dosed −1, 0, 3.2 μg/mL): −222% | GM in BALF ([1]; Days dosed −1, 0, 3.2 μg/mL): 4.5 ± 0.63 COI | GM in BALF, % Inhibition ([1]; Days dosed −1, 0, 3.2 μg/mL): −10% | GM in Serum ([1]; Days dosed −1, 0, 3.2 μg/mL): 4.7 ± 0.65 COI | GM in Serum, % Inhibition ([1]; Days dosed −1, 0, 3.2 μg/mL): −21% | CFU in lung ([1]; Days dosed −1, 0, 3.2 μg/mL intranasal): 20.4 ± 15.7 /mg of lung | CFU in lung, % Inhibition [1, 3]: 57% | GM in BALF [1, 3]: 3.9 ± 0.59 COI | GM in BALF, % Inhibition [1, 3]: 5% | GM in Serum [1, 3]: 3.6 ± 0.52 COI | GM in Serum, % Inhibition [1, 3]: 8% | CFU in lung ([1]; Days dosed −1 to + 3, 0.64 μg/mL intranasal): 4.0 ± 5.2 /mg of lung | CFU in lung, % Inhibition [1, 4]: 89% | GM in BALF [1, 4]: 3.4 ± 0.46 COI | GM in BALF, % Inhibition [1, 4]: 17% | GM in Serum [1, 4]: 2.8 ± 0.24 COI | GM in Serum, % Inhibition [1, 4]: 28% | CFU in lung ([1]; Days dosed −1 to + 3, 3.2 μg/mL intranasal): 1.0 ± 1.4 /mg of lung | CFU in lung, % Inhibition ([1]; Days dosed −7 to 0, 3.2 μg/mL): 90% | GM in BALF ([1]; Days dosed −7 to 0, 3.2 μg/mL): 2.9 ± 0.97 COI | GM in BALF, % Inhibition ([1]; Days dosed −7 to 0, 3.2 μg/mL): 29% | GM in Serum ([1]; Days dosed −7 to 0, 3.2 μg/mL): 2.6 ± 0.48 COI | GM in Serum, % Inhibition ([1]; Days dosed −7 to 0, 3.2 μg/mL): 33% | CFU in lung ([1]; Days dosed −7 to 0, 3.2 μg/mL intranasal): 0.9 ± 1.1 /mg of lung | CFU in lung, % Inhibition [1, 5]: 78% | GM in BALF [1, 5]: 3.1 ± 0.85 COI | GM in BALF, % Inhibition [1, 5]: 24% | GM in Serum [1, 5]: 2.6 ± 0.82 COI | GM in Serum, % Inhibition [1, 5]: 33% | CFU in lung ([1]; Days dosed −7 to + 3, 0.64 μg/mL intranasal): 2.0 ± 3.6 /mg of lung | CFU in lung, % Inhibition [1, 6]: 99.6% | GM in BALF [1, 6]: 1.5 ± 0.59 COI | GM in BALF, % Inhibition [1, 6]: 63% | GM in Serum [1, 6]: 1.5 ± 0.85 COI | GM in Serum, % Inhibition [1, 6]: 62% | CFU in lung ([1]; Days dosed −7 to + 3, 3.2 μg/mL intranasal): 0.04 ± 0.08 /mg of lung | IL-6 in serum, % Inhibition (IL-6; Drug Conc 3.2 μg/mL): 17% | Conc of Biomarkers, IL-6 in serum (IL-6; Drug Conc 3.2 μg/mL): 247 ± 185 pg/mL | IL-6 in serum, % Inhibition (IL-6; Drug Conc 16 μg/mL): 12% | Conc of Biomarkers, IL-6 in serum (IL-6; Drug Conc 16 μg/mL): 262 ± 185 pg/mL | IL-6 in serum, % Inhibition (IL-6; Drug Conc 80 μg/mL): 78% | Conc of Biomarkers, IL-6 in serum (IL-6; Drug Conc 80 μg/mL): 66.5 ± 32.9 pg/mL | ID50 Values for biomarkers indicated, IL-6 (IL-6; serum, title: Therapeutic Treatment): 50 µg/mL | CFU in lung, % Inhibition of response ([2]; Drug Conc 3.2 μg/mL intranasal): 19% | DNA in Lung ([2]; Drug Conc 3.2 μg/mL intranasal): 41.7 ± 29.0 pg/50 ng mouse DNA | DNA in Lung, % Inhibition of response ([2]; Drug Conc 3.2 μg/mL intranasal): 41% | GM in Serum ([2]; Drug Conc 3.2 μg/mL intranasal): 2.85 ± 2.76 COI | GM in serum, % Inhibition of response ([2]; Drug Conc 3.2 μg/mL intranasal): 16% | CFU in lung ([2]; Drug Conc 3.2 μg/mL intranasal): 25.8 ± 20.8 /mg of lung | CFU in lung, % Inhibition of response ([2]; Drug Conc 16 μg/mL intranasal): 24% | DNA in Lung ([2]; Drug Conc 16 μg/mL intranasal): 56.1 ± 53.4 pg/50 ng mouse DNA | DNA in Lung, % Inhibition of response ([2]; Drug Conc 16 μg/mL intranasal): 21% | GM in Serum ([2]; Drug Conc 16 μg/mL intranasal): 3.01 ± 2.14 COI | GM in serum, % Inhibition of response ([2]; Drug Conc 16 μg/mL intranasal): 11% | CFU in lung ([2]; Drug Conc 16 μg/mL intranasal): 24.2 ± 15.8 /mg of lung | CFU in lung, % Inhibition of response ([2]; Drug Conc 80 μg/mL intranasal): 71% | DNA in Lung ([2]; Drug Conc 80 μg/mL intranasal): 4.10 ± 4.60 pg/50 ng mouse DNA | DNA in Lung, % Inhibition of response ([2]; Drug Conc 80 μg/mL intranasal): 94% | GM in Serum ([2]; Drug Conc 80 μg/mL intranasal): 0.53 ± 0.38 COI | GM in serum, % Inhibition of response ([2]; Drug Conc 80 μg/mL intranasal): 84% | CFU in lung ([2]; Drug Conc 80 μg/mL intranasal): 9.30 ± 5.20 /mg of lung | ID50 Values, A. fumigatus DNA in Lung [2, 7]: 50 µg/mL (≈ 72.8 µM) | ID50 Values, GM in serum [2, 7]: 47 µg/mL (≈ 68.4 µM) | ID50 Values, Lung Fungal Load [2, 7]: 51 µg/mL (≈ 74.3 µM)

CC[C@@H]([C@H](C)O)n1ncn(-c2ccc(N3CCN(c4ccc(OC[C@@H]5CO[C@@](Cn6cncn6)(c6ccc(F)cc6F)C5)cc4)CC3)cc2)c1=O [Posaconazole, reference compound]
ID50 Values, GM in serum [2, 7]: 590 µg/mL (≈ 842 µM) | ID50 Values, Lung Fungal Load [2, 7]: 390 µg/mL (≈ 557 µM)
